Experimental data reported in paper PMC6009942, “Synthesis and molecular docking studies of some 4-phthalimidobenzenesulfonamide derivatives as acetylcholinesterase and butyrylcholinesterase inhibitors” (Journal of Enzyme Inhibition and Medicinal Chemistry, 2016).

Assays:
[1] = molecular target: T1, AChE (E.C.3.1.1.7., Type VI-S, from electric eel) (Electrophorus electricus, UniProt O42275); assay: AChE inhibition, modified Ellman colorimetric method; format: biochemical; conditions: pH 8.0, 5-min incubation, mean ± SEM of triplicate independent experiments
T1 construct: purchased Sigma-Aldrich (Steinheim, Germany) Type VI-S
T1 sequence (O42275 24-633): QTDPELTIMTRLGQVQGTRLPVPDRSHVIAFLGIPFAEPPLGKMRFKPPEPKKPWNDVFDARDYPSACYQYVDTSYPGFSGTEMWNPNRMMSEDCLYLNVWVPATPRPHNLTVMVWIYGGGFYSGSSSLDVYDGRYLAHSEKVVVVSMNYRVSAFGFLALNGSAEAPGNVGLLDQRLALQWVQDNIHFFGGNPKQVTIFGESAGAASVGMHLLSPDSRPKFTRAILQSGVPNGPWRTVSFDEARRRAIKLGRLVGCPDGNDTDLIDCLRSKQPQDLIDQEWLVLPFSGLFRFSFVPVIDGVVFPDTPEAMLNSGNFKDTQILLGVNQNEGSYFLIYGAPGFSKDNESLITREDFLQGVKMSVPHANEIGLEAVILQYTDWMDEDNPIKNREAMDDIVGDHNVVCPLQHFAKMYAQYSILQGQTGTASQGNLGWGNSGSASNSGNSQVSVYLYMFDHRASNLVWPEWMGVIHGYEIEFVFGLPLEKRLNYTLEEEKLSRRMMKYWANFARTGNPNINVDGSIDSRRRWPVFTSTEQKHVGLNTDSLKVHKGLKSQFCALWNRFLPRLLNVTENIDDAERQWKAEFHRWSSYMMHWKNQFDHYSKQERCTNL
Source text: (§1) AChE (E.C.3.1.1.7., Type VI-S, from electric eel) and BuChE (E.C.3.1.1.8., from equine serum) were purchased from Sigma-Aldrich (Steinheim, Germany). 5,5′-Dithiobis(2-nitrobenzoic acid) (DTNB, Ellman’s reagent) acetylthiocholine iodide (AChI) and butyrylthiocholine iodide (BChI) used as substrates were obtained from Fluka. Buffer compounds (potassium dihydrogen phosphate, potassium hydroxide) and sodium hydrogen carbonate were purchased from Merck (Darmstadt, Germany). Spectrophotometric measurements were performed on a Shimadzu 160-A UV-Vis spectrophotometer.
(§2) The inhibitory effects of the synthesized compounds on AChE and BuChE were evaluated using a slightly modified colorimetric method of Ellman et al., with galantamine as the reference compound[41–45]. Prior to use, all solutions were adjusted to 20 °C. Enzyme solution (100 μL) and inhibitor solution (100 μL) were added into a cuvette containing the phosphate buffer (3.0 mL, 0.1 M; pH 8.0). After 5-min incubation, required aliquots of the DTNB solution (100 μL) and of the AChI/BChI (20 μL) were added. After rapid and immediate mixing, the absorption was measured at 412 nm by UV spectroscopy. As a reference, an identical solution of the enzyme without the inhibitor is processed following the same protocol. The blank reading contained 3.0 mL buffer, 200 μL water, 100 μL DTNB and 20 μL substrate. The enzyme activity was determined in the presence of at least five different concentrations of an inhibitor. Each concentration was assayed in triplicate. The samples were investigated immediately after preparation.
(§3) Inhibitory activities of the synthesized compounds against AChE and BuChE were evaluated by modified Ellman method, using galantamine as the reference compound[41–45]. The AChE inhibitory activity was determined by using electric eel acetylcholinesterase and the BuChE inhibitory activity was tested by using equine serum butyrylcholinesterase.

[2] = molecular target: T2, BuChE (E.C.3.1.1.8., from equine serum) (Equus caballus, UniProt P81908); assay: BuChE inhibition, modified Ellman colorimetric method; format: biochemical; conditions: pH 8.0, 5-min incubation, mean ± SEM of triplicate independent experiments
T2 construct: BuChE (E.C.3.1.1.8., from equine serum); purchased Sigma-Aldrich (Steinheim, Germany); host or cells: equine serum
T2 sequence (P81908 whole entry): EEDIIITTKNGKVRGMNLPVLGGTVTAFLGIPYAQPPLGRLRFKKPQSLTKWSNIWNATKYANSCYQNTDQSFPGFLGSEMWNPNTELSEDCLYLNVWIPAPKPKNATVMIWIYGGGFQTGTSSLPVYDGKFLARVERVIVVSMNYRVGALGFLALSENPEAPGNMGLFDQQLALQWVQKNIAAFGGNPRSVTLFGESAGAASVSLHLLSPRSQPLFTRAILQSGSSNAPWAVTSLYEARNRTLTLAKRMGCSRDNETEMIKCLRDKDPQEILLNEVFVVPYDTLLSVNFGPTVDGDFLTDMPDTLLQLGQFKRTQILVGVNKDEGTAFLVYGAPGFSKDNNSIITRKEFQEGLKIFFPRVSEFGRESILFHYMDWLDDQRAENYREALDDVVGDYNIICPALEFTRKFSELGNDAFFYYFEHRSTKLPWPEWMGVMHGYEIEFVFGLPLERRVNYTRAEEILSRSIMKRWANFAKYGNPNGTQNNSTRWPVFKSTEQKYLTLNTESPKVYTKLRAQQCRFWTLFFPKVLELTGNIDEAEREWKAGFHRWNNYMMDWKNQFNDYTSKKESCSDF
Source text: as §1, §2, §3

SMILES: Cc1ccc(NS(=O)(=O)c2ccc(N3C(=O)c4ccccc4C3=O)cc2)cc1 [Compound 4, 4-(1,3-Dioxoisoindolin-2-yl)-N-(p-tolyl)benzenesulfonamide]
- IC50 [1]: 8.61 ± 0.18 µM
- IC50 [2]: 85 ± 13.7 µM

SMILES: CCN(CC)S(=O)(=O)c1ccc(N2C(=O)c3ccccc3C2=O)cc1 [Compound 7, 4-(1,3-Dioxoisoindolin-2-yl)-N,N-diethylbenzenesulfonamide]
- IC50 [1]: 1.35 ± 0.08 µM
- IC50 [2]: > 100 µM

SMILES: COc1ccccc1NS(=O)(=O)c1ccc(N2C(=O)c3ccccc3C2=O)cc1 [Compound 2, 4-(1,3-Dioxoisoindolin-2-yl)-N-(2-methoxyphenyl)benzenesulfonamide]
- IC50 [1]: 6.79 ± 0.41 µM
- IC50 [2]: 44.2 ± 13.4 µM

SMILES: CC1CCCCN1S(=O)(=O)c1ccc(N2C(=O)c3ccccc3C2=O)cc1 (stereo not shown) [Compound 10, 2-(4-((2-Methylpiperidin-1-yl)sulfonyl)phenyl)isoindoline-1,3-dione]
- IC50 [1]: 8.05 ± 0.54 µM
- IC50 [2]: 75.2 ± 23.8 µM

SMILES: O=C1c2ccccc2C(=O)N1c1ccc(S(=O)(=O)N2CCCC2)cc1 [Compound 8, 2-(4-(Pyrrolidin-1-ylsulfonyl)phenyl)isoindoline-1,3-dione]
- IC50 [1]: > 100 µM
- IC50 [2]: > 100 µM

SMILES: O=C1c2ccccc2C(=O)N1c1ccc(S(=O)(=O)Nc2ccc(Cl)cc2)cc1 [Compound 6, 4-(1,3-Dioxoisoindolin-2-yl)-N-(4-chlorophenyl)benzenesulfonamide]
- IC50 [1]: 8.21 ± 0.14 µM
- IC50 [2]: 78.1 ± 5.39 µM

SMILES: Cc1ccccc1NS(=O)(=O)c1ccc(N2C(=O)c3ccccc3C2=O)cc1 [Compound 1, 4-(1,3-Dioxoisoindolin-2-yl)-N-(o-tolyl)benzenesulfonamide]
- IC50 [1]: 6.84 ± 0.17 µM
- IC50 [2]: 74.4 ± 2.34 µM

SMILES: CC(C)c1ccccc1NS(=O)(=O)c1ccc(N2C(=O)c3ccccc3C2=O)cc1 [Compound 3, 4-(1,3-Dioxoisoindolin-2-yl)-N-(2-isopropylphenyl)benzenesulfonamide]
- IC50 [1]: 8.19 ± 0.13 µM
- IC50 [2]: 13.4 ± 0.62 µM

SMILES: O=C1c2ccccc2C(=O)N1c1ccc(S(=O)(=O)N2CCCCC2)cc1 [Compound 9, 2-(4-(Piperidin-1-ylsulfonyl)phenyl)isoindoline-1,3-dione]
- IC50 [1]: 10.4 ± 0.61 µM
- IC50 [2]: > 100 µM

SMILES: O=C1c2ccccc2C(=O)N1c1ccc(S(=O)(=O)N2CCOCC2)cc1 [Compound 11, 2-(4-(Morpholinosulfonyl)phenyl)isoindoline-1,3-dione]
- IC50 [1]: 7.95 ± 0.22 µM
- IC50 [2]: 56.7 ± 3.26 µM

SMILES: COc1ccc(NS(=O)(=O)c2ccc(N3C(=O)c4ccccc4C3=O)cc2)cc1 [Compound 5, 4-(1,3-Dioxoisoindolin-2-yl)-N-(4-methoxyphenyl)benzenesulfonamide]
- IC50 [1]: 8.52 ± 0.18 µM
- IC50 [2]: 87.2 ± 13.2 µM
